# The source made the active and inactive calls.
# Experiments:
# [1] = molecular target: Sphingosine 1-phosphate receptor 4 (Homo sapiens, UniProt O95977); test: Fluorescence dose response cell-based high throughput screening assay for antagonists of the Sphingosine 1-Phosphate Receptor 4 (S1P4). [Related pubchem assays: 1524 (Confirmation in triplicates.), 1510 (Primary screen.)]; format: functional
# [2] = molecular target: Sphingosine 1-phosphate receptor 1 (Homo sapiens, UniProt P21453); format: functional;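 also: Tango beta-arrestin reporter U2OS cells stimulated with S1P near its EC80; inhibitor potency meaning antagonism of receptor activation by the natural agonist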
# [3] = molecular target: T1, Neuropeptide Y receptor type 2 (Homo sapiens, UniProt P49146); test: NPY-Y2 antagonist potency, selectivity check, dose response, counter-screen for NPY-Y1 antagonist project, cell-based (AID 1278); format: functional
# T1 sequence (P49146 whole entry): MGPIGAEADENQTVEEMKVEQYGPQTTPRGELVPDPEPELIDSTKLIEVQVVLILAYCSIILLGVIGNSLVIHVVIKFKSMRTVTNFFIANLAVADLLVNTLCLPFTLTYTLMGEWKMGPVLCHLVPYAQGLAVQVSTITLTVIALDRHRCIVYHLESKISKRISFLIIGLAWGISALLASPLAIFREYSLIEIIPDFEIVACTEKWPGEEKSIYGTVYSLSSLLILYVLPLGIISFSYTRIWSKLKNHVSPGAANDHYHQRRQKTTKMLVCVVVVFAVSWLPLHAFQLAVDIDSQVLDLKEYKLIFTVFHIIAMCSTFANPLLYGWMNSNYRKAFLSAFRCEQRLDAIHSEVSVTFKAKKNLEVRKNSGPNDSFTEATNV
# [4] = molecular target: T2, Neuropeptide Y receptor type 1 (Homo sapiens, UniProt P25929); test: NPY-Y1 receptor antagonist potency, dose response, cell-based (AID 1277); format: functional
# T2 sequence (P25929 whole entry): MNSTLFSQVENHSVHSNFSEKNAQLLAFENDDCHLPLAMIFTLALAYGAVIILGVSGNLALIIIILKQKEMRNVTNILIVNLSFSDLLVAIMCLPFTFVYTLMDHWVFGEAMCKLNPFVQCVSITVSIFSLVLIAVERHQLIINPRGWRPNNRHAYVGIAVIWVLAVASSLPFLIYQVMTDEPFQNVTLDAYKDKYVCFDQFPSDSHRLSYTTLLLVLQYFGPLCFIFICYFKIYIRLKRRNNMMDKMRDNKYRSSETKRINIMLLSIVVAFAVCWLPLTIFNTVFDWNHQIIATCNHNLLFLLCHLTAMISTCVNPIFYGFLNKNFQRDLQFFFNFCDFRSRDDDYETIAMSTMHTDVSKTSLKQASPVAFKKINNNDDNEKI
# Estrogen receptor [5] = molecular target: T3, Estrogen receptor (Homo sapiens, UniProt P03372); test: potentiators of ERα–SRC-1 coactivator binding, dose response, biochemical, TR-FRET, ERα LBD (AID 737)
# T3 sequence (P03372 whole entry): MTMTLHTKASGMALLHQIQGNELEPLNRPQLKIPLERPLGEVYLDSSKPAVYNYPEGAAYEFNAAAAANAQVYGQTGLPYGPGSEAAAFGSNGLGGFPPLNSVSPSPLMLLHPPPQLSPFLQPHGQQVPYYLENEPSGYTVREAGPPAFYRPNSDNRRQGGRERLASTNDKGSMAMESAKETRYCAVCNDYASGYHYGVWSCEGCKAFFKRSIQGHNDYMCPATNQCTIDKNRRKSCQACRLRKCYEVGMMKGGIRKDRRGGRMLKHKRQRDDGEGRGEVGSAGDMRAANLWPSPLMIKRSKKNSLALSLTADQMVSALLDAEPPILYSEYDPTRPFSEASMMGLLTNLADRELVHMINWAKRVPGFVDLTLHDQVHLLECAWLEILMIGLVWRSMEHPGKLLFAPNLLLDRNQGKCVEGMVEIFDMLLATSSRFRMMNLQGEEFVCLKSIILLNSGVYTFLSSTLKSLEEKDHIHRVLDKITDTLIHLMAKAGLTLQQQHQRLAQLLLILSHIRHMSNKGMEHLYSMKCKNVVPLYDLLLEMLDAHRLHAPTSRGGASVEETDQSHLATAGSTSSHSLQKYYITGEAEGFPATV
# [6] = Shn3 3'UTR reporter inhibitors, dose response, cell-based, Clone20 osteoblasts, firefly luciferase, cherry-picked (AID 624132); format: functional;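 also: firefly luciferase luminescence from reporter carrying the Shn3 3'UTR in osteoblasts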
# [7] = HepG2 cell cytotoxicity, dose response, cytotoxicity control for Shn3 inhibitor project, CellTiter-Glo, cherry-picked (AID 624134); format: functional, cell-based
# [8] = control 3'UTR Renilla luciferase suppression, dose response, counter-screen for Shn3 inhibitor project, cell-based, Clone20-Shn3RL, cherry-picked (AID 624133); format: functional
# Bcl-2-like protein 10 = molecular target: T4, Bcl-2-like protein 10 (Homo sapiens, UniProt Q9HD36); test: Biochemical TR3 FP assay of Bcl-B inhibitor potency, EC50 (AID 1243); format: functional
# T4 sequence (Q9HD36 whole entry): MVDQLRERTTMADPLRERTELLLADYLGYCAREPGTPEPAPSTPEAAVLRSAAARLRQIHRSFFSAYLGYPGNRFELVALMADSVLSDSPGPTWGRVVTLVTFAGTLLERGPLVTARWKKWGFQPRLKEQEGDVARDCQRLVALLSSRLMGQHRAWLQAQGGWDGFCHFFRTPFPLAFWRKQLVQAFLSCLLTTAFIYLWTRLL
# [9] = molecular target: T5, Heat shock 70 kDa protein 1A (Homo sapiens, UniProt P0DMV8); test: Hsp70 inhibitors, biochemical, TR-FRET (AID 786)
# T5 sequence (P0DMV8 whole entry): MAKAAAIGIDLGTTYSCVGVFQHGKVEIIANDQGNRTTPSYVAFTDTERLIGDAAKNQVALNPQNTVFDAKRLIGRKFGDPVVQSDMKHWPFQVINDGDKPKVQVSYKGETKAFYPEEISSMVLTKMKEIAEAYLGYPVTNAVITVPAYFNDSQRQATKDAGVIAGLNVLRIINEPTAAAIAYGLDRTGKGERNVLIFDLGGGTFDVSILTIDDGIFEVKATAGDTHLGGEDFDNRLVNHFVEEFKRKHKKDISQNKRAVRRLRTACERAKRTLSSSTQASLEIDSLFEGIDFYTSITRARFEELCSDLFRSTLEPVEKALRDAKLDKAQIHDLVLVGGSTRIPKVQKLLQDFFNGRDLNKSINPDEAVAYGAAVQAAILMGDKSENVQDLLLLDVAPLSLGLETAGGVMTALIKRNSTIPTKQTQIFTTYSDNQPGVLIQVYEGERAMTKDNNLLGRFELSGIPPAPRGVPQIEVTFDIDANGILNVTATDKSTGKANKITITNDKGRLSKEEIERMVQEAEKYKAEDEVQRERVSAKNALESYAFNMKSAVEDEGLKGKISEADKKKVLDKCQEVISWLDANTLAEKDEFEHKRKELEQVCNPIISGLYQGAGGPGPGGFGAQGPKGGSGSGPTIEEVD
# [10] = molecular target: T5, Heat shock 70 kDa protein 1A; test: Hsp70 inhibitors, probe displacement, primary screen, biochemical, fluorescence polarization (AID 583)
# Estrogen receptor [11] = molecular target: T3, Estrogen receptor
# Estrogen receptor beta [12] = molecular target: T6, Estrogen receptor beta (Homo sapiens, UniProt Q92731);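 also: recombinant ER-beta bound to coactivator SRC1 peptide in presence of estradiol agonist; inhibitors block coactivator peptide binding and lower the FRET signal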
# T6 sequence (Q92731 whole entry): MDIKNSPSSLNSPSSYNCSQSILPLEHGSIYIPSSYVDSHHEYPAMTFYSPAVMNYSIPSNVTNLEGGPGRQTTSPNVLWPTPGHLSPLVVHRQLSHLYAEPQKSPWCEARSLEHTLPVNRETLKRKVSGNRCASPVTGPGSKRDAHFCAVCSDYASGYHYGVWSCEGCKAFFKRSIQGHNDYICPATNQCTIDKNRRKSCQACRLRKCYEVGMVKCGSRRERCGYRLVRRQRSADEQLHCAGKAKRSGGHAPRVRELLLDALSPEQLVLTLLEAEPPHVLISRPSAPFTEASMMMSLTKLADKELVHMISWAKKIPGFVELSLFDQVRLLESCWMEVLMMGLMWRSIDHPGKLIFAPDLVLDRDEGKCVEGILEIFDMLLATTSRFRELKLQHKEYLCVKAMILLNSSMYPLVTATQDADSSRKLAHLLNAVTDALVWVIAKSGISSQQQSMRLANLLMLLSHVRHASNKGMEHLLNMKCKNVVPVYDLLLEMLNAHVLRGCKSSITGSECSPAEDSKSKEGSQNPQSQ
# Estrogen receptor beta [13] = molecular target: T6, Estrogen receptor beta; test: ERβ–SRC-3 coactivator interaction inhibitors, confirmation, orthogonal assay, biochemical, ELISA, streptavidin-HRP readout (AID 1060)
# [14] = Luminescence Cell-Based Dose Retest to Confirm Inhibitors of Cancer Stem Cells. [Related pubchem assays (depositor defined):AID2717, AID2721]; format: functional; conditions: Homo sapiens
# [15] = molecular target: Peroxisome proliferator-activated receptor gamma/Nuclear receptor coactivator 2 (Homo sapiens, UniProt P37231); format: functional;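 also: agonist potency for raising coactivator recruitment to the receptor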
# Sequence of Peroxisome proliferator-activated receptor gamma/Nuclear receptor coactivator 2 (P37231 whole entry): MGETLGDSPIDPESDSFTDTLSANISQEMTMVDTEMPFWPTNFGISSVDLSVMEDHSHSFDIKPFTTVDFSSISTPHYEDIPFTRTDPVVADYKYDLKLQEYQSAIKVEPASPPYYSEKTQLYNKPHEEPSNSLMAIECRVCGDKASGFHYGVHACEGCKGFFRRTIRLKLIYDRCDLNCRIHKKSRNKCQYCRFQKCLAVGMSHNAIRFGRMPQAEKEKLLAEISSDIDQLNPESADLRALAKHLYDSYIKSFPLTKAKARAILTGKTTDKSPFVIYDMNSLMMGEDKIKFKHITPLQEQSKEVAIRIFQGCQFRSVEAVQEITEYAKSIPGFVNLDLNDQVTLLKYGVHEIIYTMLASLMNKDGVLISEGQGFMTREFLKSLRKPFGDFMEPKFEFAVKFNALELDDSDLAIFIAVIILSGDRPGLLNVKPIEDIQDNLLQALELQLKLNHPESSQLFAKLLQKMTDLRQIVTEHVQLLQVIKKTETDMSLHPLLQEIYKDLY
# Sequence of Peroxisome proliferator-activated receptor gamma/Nuclear receptor coactivator 2 (Q15596 whole entry, further chain): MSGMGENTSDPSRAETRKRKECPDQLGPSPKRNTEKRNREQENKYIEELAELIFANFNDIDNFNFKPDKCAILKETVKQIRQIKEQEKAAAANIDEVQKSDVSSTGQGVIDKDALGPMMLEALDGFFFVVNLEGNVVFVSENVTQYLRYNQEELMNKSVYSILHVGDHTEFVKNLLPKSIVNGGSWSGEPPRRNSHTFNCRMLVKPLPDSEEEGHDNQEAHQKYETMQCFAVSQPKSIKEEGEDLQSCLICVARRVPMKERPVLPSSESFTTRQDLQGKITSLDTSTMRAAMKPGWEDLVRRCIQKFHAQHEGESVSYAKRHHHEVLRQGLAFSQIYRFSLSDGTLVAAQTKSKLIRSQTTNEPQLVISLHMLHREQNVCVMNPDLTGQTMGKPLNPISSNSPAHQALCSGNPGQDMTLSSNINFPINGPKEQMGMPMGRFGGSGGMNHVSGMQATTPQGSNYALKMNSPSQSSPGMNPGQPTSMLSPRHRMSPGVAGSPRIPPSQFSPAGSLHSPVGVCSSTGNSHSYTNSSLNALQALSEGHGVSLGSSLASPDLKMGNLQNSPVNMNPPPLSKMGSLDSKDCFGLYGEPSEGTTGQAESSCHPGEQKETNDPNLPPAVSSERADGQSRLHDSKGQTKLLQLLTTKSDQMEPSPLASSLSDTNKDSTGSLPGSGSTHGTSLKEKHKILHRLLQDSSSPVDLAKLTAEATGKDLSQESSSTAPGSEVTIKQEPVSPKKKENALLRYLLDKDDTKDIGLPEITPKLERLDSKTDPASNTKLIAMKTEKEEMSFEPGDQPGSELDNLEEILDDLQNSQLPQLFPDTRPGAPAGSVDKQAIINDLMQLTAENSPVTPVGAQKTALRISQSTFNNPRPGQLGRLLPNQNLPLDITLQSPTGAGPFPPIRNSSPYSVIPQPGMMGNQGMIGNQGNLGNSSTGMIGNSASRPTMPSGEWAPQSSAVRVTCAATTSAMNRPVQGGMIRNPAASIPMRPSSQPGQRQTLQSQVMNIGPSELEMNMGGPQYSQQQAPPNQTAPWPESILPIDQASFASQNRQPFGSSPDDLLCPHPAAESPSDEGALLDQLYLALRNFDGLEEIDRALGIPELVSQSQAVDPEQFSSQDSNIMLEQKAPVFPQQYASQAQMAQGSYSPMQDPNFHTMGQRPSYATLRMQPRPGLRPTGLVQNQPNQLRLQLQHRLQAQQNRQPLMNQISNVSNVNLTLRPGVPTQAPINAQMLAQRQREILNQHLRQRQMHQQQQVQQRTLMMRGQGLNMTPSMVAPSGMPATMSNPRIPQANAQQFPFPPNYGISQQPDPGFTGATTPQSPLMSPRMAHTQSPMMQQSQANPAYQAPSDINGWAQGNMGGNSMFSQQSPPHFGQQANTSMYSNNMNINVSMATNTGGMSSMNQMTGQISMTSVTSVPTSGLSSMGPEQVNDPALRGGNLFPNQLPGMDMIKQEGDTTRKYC
# [16] = molecular target: Peroxisome proliferator-activated receptor gamma/Nuclear receptor coactivator 1 (Homo sapiens, UniProt P37231); format: functional;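 also: agonist potency as compounds enhance coactivator SRC-1 recruitment to PPARgamma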
# Sequence of Peroxisome proliferator-activated receptor gamma/Nuclear receptor coactivator 1 (P37231 whole entry): as the sequence (P37231 whole entry) above
# Sequence of Peroxisome proliferator-activated receptor gamma/Nuclear receptor coactivator 1 (Q15788 whole entry, further chain): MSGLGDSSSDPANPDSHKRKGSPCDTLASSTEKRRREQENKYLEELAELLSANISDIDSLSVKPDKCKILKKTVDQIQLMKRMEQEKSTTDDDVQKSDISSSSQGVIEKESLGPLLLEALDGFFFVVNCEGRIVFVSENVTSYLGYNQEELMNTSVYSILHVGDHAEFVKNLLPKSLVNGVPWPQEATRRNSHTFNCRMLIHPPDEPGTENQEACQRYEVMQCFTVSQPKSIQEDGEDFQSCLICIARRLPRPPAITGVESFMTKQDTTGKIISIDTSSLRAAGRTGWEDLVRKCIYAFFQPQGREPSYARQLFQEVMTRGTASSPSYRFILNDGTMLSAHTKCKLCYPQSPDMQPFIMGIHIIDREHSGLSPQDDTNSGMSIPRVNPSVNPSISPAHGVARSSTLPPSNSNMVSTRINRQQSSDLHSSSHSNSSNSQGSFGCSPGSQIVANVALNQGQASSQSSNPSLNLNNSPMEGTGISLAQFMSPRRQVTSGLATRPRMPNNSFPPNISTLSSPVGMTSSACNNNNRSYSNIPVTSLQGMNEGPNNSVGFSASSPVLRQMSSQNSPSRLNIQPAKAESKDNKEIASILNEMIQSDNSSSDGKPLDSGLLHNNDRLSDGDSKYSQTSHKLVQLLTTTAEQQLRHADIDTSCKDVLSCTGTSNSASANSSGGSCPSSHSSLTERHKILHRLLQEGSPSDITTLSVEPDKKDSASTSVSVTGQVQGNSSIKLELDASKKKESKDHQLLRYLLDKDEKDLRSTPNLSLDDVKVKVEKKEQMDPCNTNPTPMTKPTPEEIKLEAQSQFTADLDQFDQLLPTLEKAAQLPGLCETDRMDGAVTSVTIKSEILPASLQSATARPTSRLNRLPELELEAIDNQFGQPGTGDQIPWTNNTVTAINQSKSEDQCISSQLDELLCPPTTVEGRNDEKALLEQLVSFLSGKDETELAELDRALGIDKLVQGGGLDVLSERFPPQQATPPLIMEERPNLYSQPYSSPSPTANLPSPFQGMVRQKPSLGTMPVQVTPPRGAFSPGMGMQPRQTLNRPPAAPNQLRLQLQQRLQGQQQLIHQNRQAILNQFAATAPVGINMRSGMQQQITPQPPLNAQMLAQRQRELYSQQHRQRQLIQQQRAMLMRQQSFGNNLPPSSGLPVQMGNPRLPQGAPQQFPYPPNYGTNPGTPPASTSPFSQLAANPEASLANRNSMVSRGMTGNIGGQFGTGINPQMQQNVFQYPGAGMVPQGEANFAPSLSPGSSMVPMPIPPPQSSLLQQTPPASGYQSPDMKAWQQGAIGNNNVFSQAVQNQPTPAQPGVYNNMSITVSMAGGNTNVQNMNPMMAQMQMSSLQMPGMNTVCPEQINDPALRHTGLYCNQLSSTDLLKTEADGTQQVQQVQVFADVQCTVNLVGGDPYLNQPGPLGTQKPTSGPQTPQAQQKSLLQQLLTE
# [17] = Luminescence Cell-Based Dose Confirmation HTS to Identify Activators of 5'UTR Stem-Loop Driven Alpha-Synuclein mRNA Translation in H4 Neuroglioblastoma Cells. [Related pubchem assays: 1829 (Project Summary), 1814 (Primary HTS)]; format: functional
# [18] = Luminescence Cell-Based Dose Response HTS to Identify Activators of Luciferase Translation or Activity in H4 […] Cells. [Related pubchem assays: 1829 (Project Summary), 1814 (Primary HTS)]; format: functional
# [19] = molecular target: Peroxisome proliferator-activated receptor gamma/Nuclear receptor coactivator 3 (Homo sapiens, UniProt P37231); format: functional;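 also: agonist potency for raising coactivator recruitment to the receptor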
# H4 = test: Luminescence Cell-Based Dose Response HTS to Identify Activators of 5'UTR Stem-Loop Driven Prion Protein mRNA Translation in H4 Neuroglioblastoma Cells. [Related pubchem assays: 1829 (Project Summary), 1814 (Primary HTS)]; format: functional; conditions: Homo sapiens
# [20] = molecular target: Protein-tyrosine kinase 2-beta (Homo sapiens, UniProt Q14289);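 also: potency of inhibitors of PYK2 kinase phosphorylation of poly-GT substrate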
# CHO-K1 = test: (§1) Counterscreen for antagonists of the orexin 1 receptor (OX1R; HCRTR1): Homogeneous time resolved fluorescence (HTRF)-based cell-based dose response assay to identify antagonists of the parental CHO-K1 cell line. [Related pubchem assays (depositor defined):AID434989, AID435008, AID463079, AID485270, AID492963, AID492964, AID492965, AID493232, AID504699, AID504701]; format: functional; conditions: Cricetulus griseus
# [21] = as §1, with “Fluorescence-based” for “Homogeneous time resolved fluorescence (HTRF)-based”, “cell-based high throughput” for “cell-based”, “CHO” for “CHO-K1”; format: functional
# [22] = molecular target: T7, Orexin/Hypocretin receptor type 1 (Homo sapiens, UniProt O43613); test: Homogeneous Time Resolved Fluorescence (HTRF)-based cell-based high throughput dose response assay for antagonists of the orexin 1 receptor (OX1R; HCRTR1). [Related pubchem assays (depositor defined):AID434989, AID435008, AID463079, AID485270, AID492963, AID492964, AID492965, AID493232, AID504717, AID504718]; format: functional
# T7 sequence (O43613 whole entry): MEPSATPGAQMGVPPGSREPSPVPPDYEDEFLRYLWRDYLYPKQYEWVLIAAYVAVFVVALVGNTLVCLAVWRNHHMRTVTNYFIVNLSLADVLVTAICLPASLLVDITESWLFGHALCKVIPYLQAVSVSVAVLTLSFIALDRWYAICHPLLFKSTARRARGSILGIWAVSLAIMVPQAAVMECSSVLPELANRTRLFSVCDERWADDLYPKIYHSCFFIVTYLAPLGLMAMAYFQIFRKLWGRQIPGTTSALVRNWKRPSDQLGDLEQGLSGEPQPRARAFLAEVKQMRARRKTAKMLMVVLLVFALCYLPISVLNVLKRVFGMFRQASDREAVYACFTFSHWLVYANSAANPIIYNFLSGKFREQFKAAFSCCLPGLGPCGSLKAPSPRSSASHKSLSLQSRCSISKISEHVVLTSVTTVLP
# [23] = molecular target: T7, Orexin/Hypocretin receptor type 1; test: Fluorescence-based cell-based high throughput dose response assay for antagonists of the orexin 1 receptor (OX1R; HCRTR1). [Related pubchem assays (depositor defined):AID434989, AID435008, AID463079, AID485270, AID492963, AID492964, AID492965, AID493232, AID504717, AID504718]; format: functional
# Cytochrome P450 2C19 = Cytochrome P450 2C19 (Homo sapiens, UniProt P33261); test: Cytochrome panel assay with activity outcomes. Panel member name: p450-cyp2c19 Compounds with AC50 equal or less than 10 uM are considered active; format: functional; conditions: read-out: AC50
# Orexin receptor type 2 [24] = molecular target: T8, Orexin receptor type 2 (Homo sapiens, UniProt O43614); test: Counterscreen assay for antagonists of the orexin 1 receptor (OX1R; HCRTR1): Fluorescence-based cell-based dose response assay for antagonists of the orexin 2 receptor (OX2R; HCRTR2), run by assay provider.; format: functional
# T8 sequence (O43614 whole entry): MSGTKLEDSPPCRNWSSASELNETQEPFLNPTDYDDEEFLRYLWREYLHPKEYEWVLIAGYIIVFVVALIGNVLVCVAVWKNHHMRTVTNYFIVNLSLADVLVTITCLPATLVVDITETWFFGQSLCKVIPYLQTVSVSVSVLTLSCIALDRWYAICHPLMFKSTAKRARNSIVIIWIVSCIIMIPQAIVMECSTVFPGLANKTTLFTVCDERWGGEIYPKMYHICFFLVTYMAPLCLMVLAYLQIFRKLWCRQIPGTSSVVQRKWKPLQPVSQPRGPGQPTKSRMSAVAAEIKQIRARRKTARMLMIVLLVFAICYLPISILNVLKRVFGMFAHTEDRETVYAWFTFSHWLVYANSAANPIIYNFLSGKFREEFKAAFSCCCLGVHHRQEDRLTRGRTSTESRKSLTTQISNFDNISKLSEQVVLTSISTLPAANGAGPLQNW
# Orexin receptor type 2 [25] = molecular target: T8, Orexin receptor type 2; test: Counterscreen assay for antagonists of the orexin 1 receptor (OX1R; HCRTR1): Homogeneous Time Resolved Fluorescence (HTRF)-based cell-based dose response assay for antagonists of the orexin 2 receptor (OX2R; HCRTR2), run by assay provider.; format: functional
# [26] = inhibitors of Vif binding to APOBEC3G peptide, primary screen, biochemical, TR-FRET, GST-Vif 1-94, biotin-A3G peptide, dose response retest (AID 1117319); format: functional;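 also: TR-FRET signal of purified GST-Vif binding a biotinylated A3G peptide; inhibitors lower the FRET signal by blocking Vif and A3G binding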
# Cytochrome P450 3A4 = Cytochrome P450 3A4 (Homo sapiens, UniProt P08684);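 also: CYP3A4 tested as one member of a cytochrome P450 panel screen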
# Cytochrome P450 2C9 = Cytochrome P450 2C9 (Homo sapiens, UniProt P11712)
structure (smiles),measurement,setting,value
O=C1c2cccc3c([N+](=O)[O-])ccc(c23)C(=O)N1CC1CCCO1 (configuration not stated),IC50,[1],1.3 µM (active)
same,IC50,[2],3.72 µM (active)
Cc1cccc(OCCNC(=O)c2ccc(Oc3ccc(C(F)(F)F)cc3[N+](=O)[O-])cc2)c1,IC50,[3],> 35 µM (not active)
same,IC50,[4],> 35 µM (not active)
CCOC(=O)N1CCN(S(=O)(=O)c2ccc(C(=O)Nc3nc4ccc(F)cc4s3)cc2)CC1,EC50,Estrogen receptor [5],11.6 µM (active)
same,AC50,[6],4.79 µM (active)
same,AC50,[7],> 70 µM (inactive)
same,AC50,[8],3.38 µM (active)
COc1ccccc1NC(=O)C1=C(C)NC(SCC(=O)c2ccc(Br)cc2)=C(C#N)C1c1ccco1 (configuration not stated),EC50,Bcl-2-like protein 10,6.24 µM (active)
Cc1ccc(C(=O)ONc2ccc(N=NC(=O)c3ccccc3O)cc2)cc1,IC50,[9],12.4 µM (active)
same,IC50,[10],25.2 µM (active)
same,IC50,Estrogen receptor [11],8.44 µM (active)
same,IC50,Estrogen receptor beta [12],8.2 µM (active)
same,IC50,Estrogen receptor beta [13],< 0.023 µM (not active)
same,AC50,[14],1.51 µM (active)
CSc1nc2ccc3nc(NC(=O)c4cccs4)sc3c2s1,EC50,[15],25.5 µM (not active)
same,EC50,[16],35.9 µM (not active)
same,EC50,[17],6.88 µM (active)
same,EC50,[18],28 µM (active)
same,EC50,[19],33.2 µM (not active)
same,EC50,H4,> 120 µM (not active)
same,IC50,[20],6.5 µM (active)
same,IC50,CHO-K1,> 66.2 µM (inactive)
same,IC50,[21],> 49.7 µM (inactive)
same,IC50,[22],0.846 µM (active)
same,IC50,[23],1.23 µM (active)
same,AC50,Cytochrome P450 2C19,2.82 µM (inconclusive)
same,IC50,Orexin receptor type 2 [24],> 88.8 µM (inactive)
same,IC50,Orexin receptor type 2 [25],> 50 µM (inactive)
same,IC50,[26],> 100 µM (active)
same,AC50,Cytochrome P450 3A4,20 µM (inconclusive)
same,AC50,Cytochrome P450 2C9,0.355 µM (inconclusive)

# Reference: ChEMBL document CHEMBL1201862, “PubChem BioAssay data set” (2004)
